# Experimental data reported in patent publication US9663478B2, “Benzotriazine oxides as drugs targeting Mycobacterium tuberculosis” (priority 2011, dated 2017).
# Experiments:
# in vitro = details: African green monkey, VERO Tox (CC50)
# NRP Mtb H37Rv cells = test: Low-oxygen recovery assay (LORA) MIC; format: cell-based, Mycobacterium tuberculosis; details: for MIC: Mycobacterium tuberculosis, H37RV, NRP Mtb, Tables 1-4 and text, read-out: LORA MIC - ITR; for LORA MIC: Tables P1, P2, non-replicating M. tuberculosis
# Mtb H37Rv [1] = test: TB MIC - SRI, resazurin-based microplate assay; format: cell-based, Mycobacterium tuberculosis; details: Mycobacterium tuberculosis, H37RV, read-out: TB MIC - SRI
# Mtb H37Rv [2] = test: TB MIC - ITR (UIC), Institute for Tuberculosis Research; format: cell-based, Mycobacterium tuberculosis; details: for MIC: Mycobacterium tuberculosis, H37RV, Tables 1-4, read-out: TB MIC - ITR; for TB MIC - UIC: Tables P1, P2
# Vero cells = test: Cytotoxicity against Vero cells (Cell Titer-Glo); details: 72 h; Tables 1-4 and text
SMILES,CC50 at 72 h (in vitro) [µg/mL],MIC (NRP Mtb H37Rv cells) [µg/mL],MIC (Mtb H37Rv [1]; Tables 1-4 and text) [µg/mL],MIC (Mtb H37Rv [2]) [µg/mL],Vero Tox CC50 (Vero cells) [µg/mL],LORA MIC (NRP Mtb H37Rv cells) [µg/mL],MIC (Mtb H37Rv [1]; Tables P1-P3) [µg/mL],TB MIC - UIC (Mtb H37Rv [2]) [µg/mL]
"CCC(COC)Nc1n[n+]([O-])c2cc(F)ccc2[n+]1[O-] (stereo not drawn) [Compound 15ai, 7-fluoro-3-((1-methoxybutan-2-yl)amino)benzo[e][1,2,4]triazine 1,4-dioxide]",6.3,1.9,5,2,,,,
"CCC(COC)Nc1n[n+]([O-])c2cc(Cl)ccc2[n+]1[O-] (stereo not drawn) [Compound 15bi, 7-chloro-3-((1-methoxybutan-2-yl)amino)benzo[e][1,2,4]triazine 1,4-dioxide]",2.6,0.78,1.2,1.4,,,,
"O=C(Cn1ccnc1[N+](=O)[O-])NCCO [Etanidazole, reference compound]",,26,> 10,> 32,>16,,,
"NNC(=O)c1ccncc1 [INH, Isoniazid, reference compound]",,> 20,0.06,0.091,>50,,,
"Cc1ncc([N+](=O)[O-])n1CCO [Metronidazole, reference compound]",,11,> 10,> 32,>16,,,
"O=C1CN(/N=C/c2ccc([N+](=O)[O-])o2)C(=O)N1 [Nitrofurantoin, reference compound]",,32,16,28,23,,,
CC(C)(C)C1CCC(Nc2n[n+]([O-])c3ccccc3[n+]2[O-])CC1 (stereo not drawn) [SRI-012257],2.3,,,,,< 0.125,0.625,0.22
CC(C)CCC(C)Nc1n[n+]([O-])c2ccccc2[n+]1[O-] (stereo not drawn) [SRI-012259],4.1,,,,,0.38,1.25,0.52
[O-][n+]1nc(NC2CCC2)[n+]([O-])c2ccccc21 [SRI-012260],8.9,,,,,0.84,1.25,0.94
CCC(C)Nc1n[n+]([O-])c2ccccc2[n+]1[O-] (stereo not drawn) [SRI-012262],21.6,,,,,1.28,2.5,2
CC(C)CC(C)Nc1n[n+]([O-])c2ccccc2[n+]1[O-] (stereo not drawn) [SRI-012263],11.7,,,,,0.83,2.5,1.98
CC(C)C(C)Nc1n[n+]([O-])c2ccccc2[n+]1[O-] (stereo not drawn) [SRI-012267],21,,,,,0.98,5,1.93
CC(Nc1n[n+]([O-])c2ccccc2[n+]1[O-])C(C)(C)C (stereo not drawn) [SRI-012268],20.2,,,,,1,5,2.43
[O-][n+]1nc(NC2[C@H]3C[C@@H]4C[C@@H](C[C@H]2C4)C3)[n+]([O-])c2ccccc21 (stereo partly drawn) [SRI-012269],7.3,,,,,2.33,2.5,1.91
CC1CC(Nc2n[n+]([O-])c3ccccc3[n+]2[O-])CC(C)(C)C1 (stereo not drawn) [SRI-012270],5.2,,,,,0.39,1.25,0.57
CCC(CC)Nc1n[n+]([O-])c2ccccc2[n+]1[O-] [SRI-012271],36.5,,,,,1.94,5,3.63
CCC(COC)Nc1n[n+]([O-])c2ccccc2[n+]1[O-] (stereo not drawn) [SRI-012272],50,,,,,4.87,10,6.57
"Nc1n[n+]([O-])c2ccccc2[n+]1[O-] [TPZ, tirapazamine, reference compound]",,7.3,5,3.7,8.0,,,
